# Experimental data as given in patent US20220119431A1, “SALT OF EGFR INHIBITOR, CRYSTAL FORM, AND PREPARATION METHOD THEREFOR” (priority 2019, published 2022).
# Legend:
# [1] = Stability test, long-term conditions 25° C./60% RH (Test Example 3); format: physicochemical; settings: 25° C. ± 2° C./60% RH ± 5% RH
# Experimental: (§1) Constant temperature and humidity chamber, model: LDS-800Y, condition: 40° C./75% RH and 25° C./60% RH.
# (§2) Influencing factor experimental conditions (high temperature of 60° C., high humidity of 75% RH, illumination): an appropriate amount of crystalline form A of the compound of formula (IIA) was placed in a dry and clean open weighing bottle, then the bottle was placed into a dryer under different conditions, and then placed into a corresponding thermostat for observation. The bottle was taken out after being placed for 5 days, 10 days and 30 days, and related substances and contents thereof were measured. Accelerated and long-term experimental conditions (40° C./75% RH, 25° C./60% RH): an appropriate amount of crystalline form A of the compound of formula (IIA) was filled into a double-layer LDPE bags, each layer of LDPE bag was sealed by a binding buckle, then put into an aluminum foil bag for heat sealing, and then put into a corresponding thermostat to observe acceleration and long-term stability.
# [2] = Stability test, influencing factors (illumination, high temperature, high humidity); format: physicochemical
# Experimental: Illumination test chamber, model: SHH-100GD-2, conditions: 5000±500 lux (visible light) and 90 mw/cm^2 (ultraviolet).
# Electric heating blast drying oven, model: GZX-9140MBE condition: 60° C.
# Constant temperature and humidity chamber, model: SHH-250SD, condition: 25° C./75% RH.
# as §2
# [3] = Stability test, accelerated conditions 40° C./75% RH (Test Example 3); format: physicochemical; settings: 40° C. ± 2° C./75% RH ± 5% RH
# Experimental: as §1, §2
# [4] = Stability test, accelerated test 40° C./75% RH (Test Example 4); format: physicochemical; settings: 40° C. ± 2° C., 75% RH ± 5% RH
# Text: The conditions and the method for the raw material stability test are mainly based on related requirements such as “Guidelines for the Stability Test of APIs and Preparations” (General Principles 9001 of the Four Parts of the Chinese Pharmacopoeia, 2015 Edition) and technical guidelines for stability study on chemical drugs (raw materials and preparations) issued by the National Medical Products Administration in February, 2015 (revised), and are specifically shown in Table 14.
# [5] = test system: L858R/T790M/C797S mutation; settings: in combination with an EGFR monoclonal antibody drug such as Cetuximab; cited from earlier work
# [6] = test system: lung cancer PC-9 cells; test: In vivo efficacy in mice with subcutaneous lung cancer PC-9 xenograft; set-up: species or system mouse; settings: 50 mg/kg (0-9 days), 25 mg/kg (10-21 days) oral once a day
# Experimental: 1. Cell culture: lung cancer PC-9 cells were cultured in an RPMI 1640 medium containing 10% fetal bovine serum, 100 U/mL penicillin and 100 μg/mL streptomycin through in vitro monolayer culture in an incubator at 37° C./5% CO2. The cells were digested with trypsin-EDTA twice a week for passaging as per conventional practice. At a cell saturation of 80%-90% and a required number, the cells were collected and counted. The cell density was 5×10^6 cells. 2. Cell inoculation: 0.2 mL (containing 5×10^6) of a suspension of PC-9 cells (PBS:Matrigel=1:1) was subcutaneously inoculated in the right back of each mouse, and 64 mice were inoculated in total. On day 7 after inoculation, when mean tumor volume was measured to be 169 mm^3, grouping administration was performed using a randomized stratified grouping method based on tumor volume and mice body weight. PBS is phosphate buffered saline, and Matrigel is matrigel. 3. Administration: the dosage was 50 mg/kg for 0-9 days and 25 mg/kg for 10-21 days; the drug was orally administrated once a day for 3 weeks.
# Tumor diameters were measured twice weekly using a vernier caliper. The tumor volume was calculated using the following formula: V=0.5a×b^2, where a and b represent the long diameter and short diameter of the tumor respectively.
# The efficacy of compounds against tumor was evaluated by TGI (%).
# Relative tumor volume (RTV) was calculated based on the results of tumor measurement. The formula is RTV=Vt/V0, where V0 represents the tumor volume measured at the time point of grouping and administration (i.e., Do), and Vt represents the tumor volume at a certain measurement for the corresponding mouse, the data of TRTV and CRTV should be measured on the same day.
# TGI (%) reflects the tumor growth inhibition rate. TGI (%)=[(1−(average tumor volume at the end of administration in a treatment group−average tumor volume at the start of administration of the treatment group))/(average tumor volume at the end of treatment of the solvent control group−average tumor volume at the start of treatment of the solvent control group)]×100%.
# Tumor weights will be measured at the end of the experiment and the TGI (%) was calculated.
# [7] = Plasma, tumor and lung exposure in the efficacy-study mice after last administration; format: in vivo, BALB/c nude mice; settings: 15.0 mg/kg/day oral
# Experimental: On day 14 after administration to the groups for the efficacy experiment, before the last administration and 2 h after the last administration, the plasma of the mice was collected by blood collection from the submandibular vein, and the plasma of the mice was collected at 1 h, 4 h, 8 h, and 24 h after the administration. About 100 μL of blood was collected each time, placed in an anticoagulation tube, and centrifuged at 8000 rpm for 7 min to collect blood plasma, and the blood plasma was preserved at −80° C. Tissues of mouse lung and tumor were collected at the same time 2 h after the administration and stored at −80° C.
# [8] = test system: Ba/F3 (Δ19 del/T790M/C797S); test: In vivo efficacy in BALB/c nude mice with subcutaneous Ba/F3 (Δ19 del/T790M/C797S) xenograft (CDX); settings: for tumor volume inhibition value (TGI): 13 consecutive days
# Experimental: In vivo drug efficacy experiment was performed on xenograft (CDX) BALB/c nude mice subcutaneously implanted with Ba/F3 (Δ19 del/T790M/C797S) source. BALB/c nude mice (female, 6-8 weeks, weighing about 18-22 g) were bred in SPF-rated environments, and each cage was ventilated individually (5 mice per cage). All animals were free to obtain a standard certified commercial laboratory diet. 48 mice in total were purchased from Beijing Vital River Laboratory Animal Technology Co., Ltd for the study. Each mouse was implanted with cells subcutaneously in the right flank for tumor growth. The experiment was started when the mean tumor volume reached about 80-120 mm^3. The test compound was administered orally daily with the compound of formula (I) (5 mg/kg, 15 mg/kg, 45 mg/kg, respectively) administered for 13 consecutive days, and the data are shown in Table 5. Tumor volume was measured twice weekly with a two-dimensional caliper, and the volume was measured in mm^3 and calculated according to the following formula: V=0.5a×b^2, where a and b are the long and short diameters, respectively, of the tumor. Anti-tumor efficacy was determined by dividing the mean tumor increase volume of compound-treated animals by the mean tumor increase volume of untreated animals.
# [9] = High humidity (25° C./75% RH), Day 5
# [10] = High temperature (60° C.), Day 5
# [11] = High temperature (60° C.), Day 10
# [12] = High temperature (60° C.), Day 30
# [13] = Light stability experiment, Day 5
# [14] = Light stability experiment, Day 10
# [15] = BALB/c nude, mouse, plasma, day 14
structure (smiles),measurement,setting,value
COc1cc(N2CCC(N3CCN(C)CC3)CC2)c(C)cc1Nc1ncc(Br)c(Nc2ccc3nccnc3c2P(C)(C)=O)n1,Content,[1]; 0 day,97.3%
same,Total impurities,[1]; 0 day,1.63%
same,Content,[1]; 3 months,99%
same,Total impurities,[1]; 3 months,1.61%
same,Content,[1]; 6 months,98.2%
same,Total impurities,[1]; 6 months,1.73%
same,Content,[1]; 9 months,99.4%
same,Total impurities,[1]; 9 months,1.83%
same,Content,[1]; 12 months,97.7%
same,Total impurities,[1]; 12 months,1.69%
same,Content,[2]; [9],99.6%
same,Total impurities,[2]; [9],1.41%
same,Content,[2]; [10],99.1%
same,Total impurities,[2]; [10],1.59%
same,Content,[2]; [11],101.6%
same,Total impurities,[2]; [11],1.63%
same,Content,[2]; [12],99.4%
same,Total impurities,[2]; [12],1.71%
same,Content,[2]; Initial value,97.3%
same,Total impurities,[2]; Initial value,1.63%
same,Content,[2]; [13],97.1%
same,Total impurities,[2]; [13],1.99%
same,Content,[2]; [14],95.1%
same,Total impurities,[2]; [14],2.21%
same,Content,[3]; 0 day,97.3%
same,Total impurities,[3]; 0 day,1.63%
same,Content,[3]; 1 month,99.1%
same,Total impurities,[3]; 1 month,1.71%
same,Content,[3]; 2 months,98.1%
same,Total impurities,[3]; 2 months,1.50%
same,Content,[3]; 3 months,98.6%
same,Total impurities,[3]; 3 months,1.56%
same,Content,[3]; 6 months,97.9%
same,Total impurities,[3]; 6 months,1.61%
same,Sum of impurities,[4]; month 0,1.18%
same,Water,[4]; month 0,3.0%
same,Sum of impurities,[4]; month 1,1.10%
same,Water,[4]; month 1,3.0%
same,Sum of impurities,[4]; month 2,1.18%
same,Water,[4]; month 2,3.5%
same,Sum of impurities,[4]; month 3,1.30%
same,Water,[4]; month 3,3.2%
same,Sum of impurities,[4]; month 6,1.18%
same,Water,[4]; month 6,2.8%
O=C(Nc1nccs1)C(c1cc(F)ccc1O)N1Cc2ccccc2C1=O (stereo not shown) [EAI045],tumor inhibitory effect,[5],good tumor inhibitory effect
COc1cc(N2CCC(N3CCN(C)CC3)CC2)c(C)cc1Nc1ncc(Br)c(Nc2ccc3nccnc3c2P(C)(C)=O)n1 [Compound of formula (I)],Tumor volume,[6]; Day 0,185 mm^3
same,Tumor volume,[6]; Day 2,198 mm^3
same,Tumor volume,[6]; Day 6,92 mm^3
same,Tumor volume,[6]; Day 9,75 mm^3
same,Tumor volume,[6]; Day 13,40 mm^3
same,Tumor volume,[6]; Day 16,45 mm^3
same,Tumor volume,[6]; Day 20,76 mm^3
same,Tumor volume,[6]; Day 23,111 mm^3
same,TGI,[6]; day 23,100%
same,"Lung concentration, 2 h",[7]; 2 h after last administration,32533 nmol/kg
same,"Tumor concentration, 2 h",[7]; 2 h after last administration,16667 nmol/kg
same,concentration at 2 h,"[7]; BALB/c nude, mouse, plasma, 2 h after last administration",3.55 µM
same,AUC(0-t),[7]; [15],57 µM·h
same,half-life,[7]; [15],10 h
same,Tumor volume,"[8]; 5 mg/kg/day oral, Day 0",84 mm^3
same,Tumor volume,"[8]; 5 mg/kg/day oral, Day 2",108 mm^3
same,Tumor volume,"[8]; 5 mg/kg/day oral, Day 5",212 mm^3
same,Tumor volume,"[8]; 5 mg/kg/day oral, Day 8",395 mm^3
same,Tumor volume,"[8]; 5 mg/kg/day oral, Day 10",505 mm^3
same,Tumor volume,"[8]; 5 mg/kg/day oral, Day 12",748 mm^3
same,Tumor volume,"[8]; 5 mg/kg/day oral, Day 13",881 mm^3
same,tumor volume inhibition value (TGI),[8]; 15 mg/kg oral daily,74.9%
same,Tumor volume,"[8]; 15 mg/kg/day oral, Day 0",84 mm^3
same,Tumor volume,"[8]; 15 mg/kg/day oral, Day 2",76 mm^3
same,Tumor volume,"[8]; 15 mg/kg/day oral, Day 5",107 mm^3
same,Tumor volume,"[8]; 15 mg/kg/day oral, Day 8",126 mm^3
same,Tumor volume,"[8]; 15 mg/kg/day oral, Day 10",176 mm^3
same,Tumor volume,"[8]; 15 mg/kg/day oral, Day 12",292 mm^3
same,Tumor volume,"[8]; 15 mg/kg/day oral, Day 13",326 mm^3
same,tumor volume inhibition value (TGI),[8]; 45 mg/kg oral daily,101.69%
same,Tumor volume,"[8]; 45 mg/kg/day oral, Day 0",84 mm^3
same,Tumor volume,"[8]; 45 mg/kg/day oral, Day 2",56 mm^3
same,Tumor volume,"[8]; 45 mg/kg/day oral, Day 5",32 mm^3
same,Tumor volume,"[8]; 45 mg/kg/day oral, Day 8",35 mm^3
same,Tumor volume,"[8]; 45 mg/kg/day oral, Day 10",42 mm^3
same,Tumor volume,"[8]; 45 mg/kg/day oral, Day 12",73 mm^3
same,Tumor volume,"[8]; 45 mg/kg/day oral, Day 13",68 mm^3
